{"source": "patent US20150004110A1", "about": "“NOVEL ANTI-AGING AND DEPIGMENTING COSMETIC COMPOSITIONS” (DIVERCHIM, priority 2011, published 2015)", "key": {"collagen IV": {"system": "collagen IV", "test": "Staining and immunolabelling of skin explant sections: collagen IV", "type": "cell-based, human", "conditions": "treated skin explant sections", "description": "(§1) 1. Preparation of the explants • During abdominoplasty of a person, 45 skin explants were prepared. The explants were put in BEM medium (BIO-EC's Explants Medium) for survival at 37° C. in humid atmosphere, enriched with 5% CO2.\n(§2) 2. Application of the products • The solutions are prepared in DMSO from pure products, in order to obtain final concentrations of […] by incorporating an identical volume of 10 μl in each well and for each treatment. The treatment was carried out in the survival medium on days 0, 1, 2, 5 and 7.\n(§3) 3. Taking samples • On D0, the 3 explants of batch TO were taken and each explant was cut in two. One part was fixed in buffered formol for observation of the general morphology. The other was frozen and stored at −80° C. • On D5 and D9, 3 explants from each batch were taken and treated in the same way.\n(§4) 4. Histological treatment • After fixation for 48 hours in buffered formol, the samples were dehydrated and embedded in paraffin using a Leica 1020 automatic dehydrator. They were embedded according to procedure MO-H-153 using a Leica EG 1160 coating station. Sections of 5 μm were prepared according to procedure MO-H-173 using a Minot-type microtome, Leica RM 2125 and mounted on Superfrost® histological glass slides.\n(§5) 6. Staining and immunolabelling\n(§6) Immunolabelling will be carried out on sections with the appropriate antibody. […]"}, "PPARγ (h) [1]": {"molecular_target": "T1, PPARγ (h) (Homo sapiens, UniProt P37231)", "T1 construct": "Cerep (contract laboratory that ran the assay)", "T1 sequence (P37231 1-505)": "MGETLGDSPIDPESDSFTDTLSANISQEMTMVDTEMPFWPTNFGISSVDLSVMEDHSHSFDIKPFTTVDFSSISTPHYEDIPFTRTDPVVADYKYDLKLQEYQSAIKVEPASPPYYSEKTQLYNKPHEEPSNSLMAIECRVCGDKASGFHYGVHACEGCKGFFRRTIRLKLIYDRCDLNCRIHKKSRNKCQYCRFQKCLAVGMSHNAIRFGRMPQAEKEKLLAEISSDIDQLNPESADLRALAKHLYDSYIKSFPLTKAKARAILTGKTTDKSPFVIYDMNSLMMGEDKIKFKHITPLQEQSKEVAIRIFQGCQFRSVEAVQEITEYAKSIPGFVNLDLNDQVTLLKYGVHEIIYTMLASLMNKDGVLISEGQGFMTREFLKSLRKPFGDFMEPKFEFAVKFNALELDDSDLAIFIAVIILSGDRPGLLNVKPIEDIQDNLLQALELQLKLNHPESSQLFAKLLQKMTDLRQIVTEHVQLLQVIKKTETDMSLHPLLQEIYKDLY", "test": "PPARγ antagonist effect, coactivator Alpha screen", "type": "biochemical", "description": "The agonist or antagonist activity of compound 1 on the PPAR receptors was tested by fluorescence techniques. • Material and Methods\nThe results are expressed as: • percentage of control specific agonist response (measured specific response/control specific agonist response)×100) and • percentage inhibition of the control specific agonist response (100−((measured specific response)/control specific agonist response)×100)) obtained in the presence of compound 1.\nThe EC50 values (concentration at which the maximum specific response is 50%) and the IC50 values (concentration at which the maximum control specific agonist response is inhibited by 50%) are determined by non-linear regression analysis of the concentration-response curves with a mean replicated value using adjustment of Hill's equation\nFor the antagonists, the apparent dissociation constants (KB) were calculated using the modified Cheng-Prusoff equation"}, "PPARγ (h) [2]": {"molecular_target": "T1, PPARγ (h)", "test": "PPARγ competitive radioligand binding assay (Cerep)", "description": "The affinity of compound 1 for the PPAR receptors (α and γ) was tested by in vitro binding assays (tests carried out by the company Cerep).\nThis is a nuclear receptor competitive binding assay, between a radiolabelled ligand and the test molecule (here compound 1).\nThe principle of the technique consists of measuring the displacement of the radioactive ligand bound to the receptor by the test molecule. • Material and Methods\nThe specific binding of the ligand is defined by the difference between total binding and non-specific binding determined in the presence of an excess of unlabelled ligand.\nThe results are expressed as: • percentage of control specific binding ((measured specific binding/control specific binding)×100)) • percentage of inhibition of control specific binding ((100−(measured specific binding/control specific binding)) obtained in the presence of compound 1.\nThe values of IC50 (concentration at which the maximum control specific binding is inhibited by 50%), and the Hill coefficient (nH) are determined by non-linear regression analysis of the curves of competition with a mean replicated value using adjustment of Hill's equation\nThe inhibition constant (Ki) was calculated using the Cheng-Prusoff equation"}, "[3]": {"system": "HSPB1, heat shock protein beta-1", "test": "RT-qPCR expression of HSPB1 in keratinocytes", "type": "cell-based, human", "conditions": "10 μM", "description": "The expression of the specific markers was evaluated by RT-qPCR (reverse transcription quantitative polymerase chain reaction) on messenger RNAs extracted from the cell lawns from each treatment. The transcriptomic profile contains 64 genes selected for their importance in keratinocyte differentiation. The PCR reactions (polymerase chain reactions) were carried out by quantitative PCR with the “Light Cycler” system (Roche Molecular System Inc.) according to the procedures recommended by the supplier. Normal human epidermal keratinocytes were incubated in the presence of compound 1 or a reference with calcium chloride. The expression of the specific markers was evaluated by RT-qPCR on the messenger RNAs extracted from the cell lawns from each treatment."}, "[4]": {"system": "normal human dermal fibroblasts", "test": "Neosynthesis of sulphated GAGs ([35S]-sulphate incorporation) in dermal fibroblasts", "type": "cell-based", "conditions": "monolayer of normal human dermal fibroblasts", "description": "The effects of this compound were evaluated on a monolayer of normal human dermal fibroblasts by measuring the neosynthesis of glycosaminoglycans designated as sulphated GAGs (incorporation of [^35S]-sulphate). […] This might explain the effect of dermal reinforcement already observed on skin explants ex vivo."}, "[5]": {"system": "skin explants (abdominoplasty)", "test": "Histological assessment of the general morphology of skin explants maintained in survival", "type": "cell-based, human", "conditions": "2 μg/mL in DMSO, after 9 days of survival", "description": "as §1, §2, §3\n4. […]\n5. Microscopic observations • The microscopic observations were carried out by light microscopy and fluorescence microscopy, using a Orthoplan-type Leica microscope, with ×25 objective. The images were recorded with a Sony DXC 390P tri CCD camera and stored using the Leica IM1000 data archiving software. • The general morphology was observed on sections in paraffin after staining with Masson trichrome, Goldner variant according to procedure MO-H-157. […]"}, "collagen I": {"system": "collagen I", "test": "Staining and immunolabelling of skin explant sections: collagen I", "type": "cell-based, human", "conditions": "treated skin explant sections", "description": "as §1, §2, §3, §4, §5, §6"}}}
{"smiles": "Oc1ccccc1CCOc1ccc(F)cc1", "note": "[Compound 1, 2-[2-(4-fluoro-phenoxy)-ethyl]-phenol]", "values": [{"measurement": "Collagen IV along the dermal-epidermal junction", "setting": "collagen IV", "result": "clear overexpression"}, {"measurement": "inhibition at 10 µM", "setting": "PPARγ (h) [1]; 10^−5 M, read-out: % Inhibition of control agonist response", "result": 0, "unit": "%"}, {"measurement": "inhibition at 1 µM", "setting": "PPARγ (h) [1]; 10^−6 M, read-out: % Inhibition of control agonist response", "result": 0, "unit": "%"}, {"measurement": "inhibition at 0.1 µM", "setting": "PPARγ (h) [1]; 10^−7 M, read-out: % Inhibition of control agonist response", "result": 3, "unit": "%"}, {"measurement": "PPARγ antagonist activity (conclusion in words)", "setting": "PPARγ (h) [1]; 10^−7 to 10^−5 M", "result": "not an antagonist"}, {"measurement": "Interpretation of the 49% inhibition of PPARγ specific binding", "setting": "PPARγ (h) [2]; 10^−5 M", "result": "slight to moderate effect"}, {"measurement": "inhibition at 10 µM", "setting": "PPARγ (h) [2]; 10^−5 M, agonist radioligand, read-out: % Inhibition of control specific binding", "result": 49, "unit": "%"}, {"measurement": "inhibition at 1 µM", "setting": "PPARγ (h) [2]; 10^−6 M, agonist radioligand, read-out: % Inhibition of control specific binding", "result": 1, "unit": "%"}, {"measurement": "inhibition at 0.1 µM", "setting": "PPARγ (h) [2]; 10^−7 M, agonist radioligand, read-out: % Inhibition of control specific binding", "result": 0, "unit": "%"}, {"measurement": "Activity with respect to the PPARγ receptor (binding, conclusion in words)", "setting": "PPARγ (h) [2]; 10^−7 to 10^−5 M", "result": "no activity"}, {"measurement": "Expression of the stress protein HSPB1", "setting": "[3]", "result": "inhibition of expression"}, {"measurement": "Neosynthesis of sulphated GAGs", "setting": "[4]", "result": "stimulated the neosynthesis of sulphated GAGs, in a non-concentration-dependent fashion"}, {"measurement": "General morphology: epidermal structure and papillary dermis", "setting": "[5]", "result": "very clear epidermal and dermal restructuring activity"}, {"measurement": "Collagen I in the papillary dermis", "setting": "collagen I", "result": "clear overexpression"}]}
